Laboratory results: ChEMBL document CHEMBL5463727, “Data for DCP probe SGK3-PROTAC1” (2023)
The source made the active and inactive calls. No cut-off for these calls is given here.

Experiments:
[1] = target: Ribosomal protein S6 kinase alpha-1 (Homo sapiens) (UniProt Q15418); experiment: % Activity remaining of RSK1 in the Dundee kinase panel at 1.0 µM; conditions: Compound concentration 1.0 uM
[2] = target: Ribosomal protein S6 kinase alpha-3 (Homo sapiens) (UniProt P51812); experiment: % Activity remaining of RSK2 in the Dundee kinase panel at 1.0 µM; conditions: Compound concentration 1.0 uM
[3] = target: Mitogen-activated protein kinase kinase kinase 7 (Homo sapiens) (UniProt O43318); experiment: % Activity remaining of TAK1 in the Dundee kinase panel at 1.0 µM; conditions: Compound concentration 1.0 uM
Sequence of Mitogen-activated protein kinase kinase kinase 7 (Homo sapiens) (O43318 whole entry): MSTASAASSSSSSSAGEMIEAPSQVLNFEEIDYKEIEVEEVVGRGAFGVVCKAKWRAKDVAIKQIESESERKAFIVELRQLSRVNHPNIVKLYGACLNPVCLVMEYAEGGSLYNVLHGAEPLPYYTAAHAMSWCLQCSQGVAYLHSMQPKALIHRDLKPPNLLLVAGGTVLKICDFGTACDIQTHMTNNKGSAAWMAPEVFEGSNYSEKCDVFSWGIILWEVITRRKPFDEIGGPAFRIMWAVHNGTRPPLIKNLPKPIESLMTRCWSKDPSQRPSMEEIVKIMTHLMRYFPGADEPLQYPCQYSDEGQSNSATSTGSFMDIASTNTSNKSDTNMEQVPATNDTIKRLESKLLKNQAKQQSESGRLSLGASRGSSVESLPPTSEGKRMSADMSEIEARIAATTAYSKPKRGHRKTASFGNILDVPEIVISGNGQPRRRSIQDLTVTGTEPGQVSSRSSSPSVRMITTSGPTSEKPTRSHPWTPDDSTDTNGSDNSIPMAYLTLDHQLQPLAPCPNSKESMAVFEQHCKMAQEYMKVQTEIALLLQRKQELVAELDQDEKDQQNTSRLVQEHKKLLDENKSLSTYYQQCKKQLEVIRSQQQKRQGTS

[4] = target: Serine/threonine-protein kinase Sgk3 (Homo sapiens, UniProt Q96BR1); experiment: SGK3 radioactive filter binding assay using 33P ATP (Dundee kinase screen)
[5] = target: Serine/threonine-protein kinase 33 (Homo sapiens) (UniProt Q9BYT3); experiment: % Activity remaining of STK33 in the Dundee kinase panel at 1.0 µM; conditions: Compound concentration 1.0 uM
[6] = target: Insulin-like growth factor 1 receptor (Homo sapiens) (UniProt P08069); experiment: % Activity remaining of IGF-1R in the Dundee kinase panel at 1.0 µM; conditions: Compound concentration 1.0 uM
[7] = target: Insulin receptor (Homo sapiens) (UniProt P06213); experiment: % Activity remaining of IR in the Dundee kinase panel at 1.0 µM; conditions: Compound concentration 1.0 uM
[8] = target: Mitogen-activated protein kinase 9 (Homo sapiens) (UniProt P45984); experiment: % Activity remaining of JNK2 in the Dundee kinase panel at 1.0 µM; conditions: Compound concentration 1.0 uM
[9] = target: Insulin receptor-related protein (Homo sapiens) (UniProt P14616); experiment: % Activity remaining of IRR in the Dundee kinase panel at 1.0 µM; conditions: Compound concentration 1.0 uM
[10] = target: Maternal embryonic leucine zipper kinase (Homo sapiens) (UniProt Q14680); experiment: % Activity remaining of MELK in the Dundee kinase panel at 1.0 µM; conditions: Compound concentration 1.0 uM
[11] = target: Dual specificity testis-specific protein kinase 1 (Homo sapiens) (UniProt Q15569); experiment: % Activity remaining of TESK1 in the Dundee kinase panel at 1.0 µM; conditions: Compound concentration 1.0 uM
[12] = target: Mitogen-activated protein kinase kinase kinase 9 (Homo sapiens) (UniProt P80192); experiment: % Activity remaining of MLK1 in the Dundee kinase panel at 1.0 µM; conditions: Compound concentration 1.0 uM
[13] = target: Serine/threonine-protein kinase pim-2 (Homo sapiens) (UniProt Q9P1W9); experiment: % Activity remaining of PIM2 in the Dundee kinase panel at 1.0 µM; conditions: Compound concentration 1.0 uM
Sequence of Serine/threonine-protein kinase pim-2 (Homo sapiens) (Q9P1W9 whole entry, looked up): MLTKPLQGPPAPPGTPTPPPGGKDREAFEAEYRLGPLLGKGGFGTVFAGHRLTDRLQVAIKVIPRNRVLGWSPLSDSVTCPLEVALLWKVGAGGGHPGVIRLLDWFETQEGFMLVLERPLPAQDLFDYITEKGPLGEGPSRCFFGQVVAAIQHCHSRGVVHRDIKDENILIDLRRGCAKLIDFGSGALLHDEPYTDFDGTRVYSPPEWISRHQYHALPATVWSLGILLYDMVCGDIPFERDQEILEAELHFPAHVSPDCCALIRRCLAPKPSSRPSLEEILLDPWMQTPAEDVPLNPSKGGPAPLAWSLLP

[14] = target: Serine/threonine-protein kinase PAK 6 (Homo sapiens) (UniProt Q9NQU5); experiment: % Activity remaining of PAK6 in the Dundee kinase panel at 1.0 µM; conditions: Compound concentration 1.0 uM
[15] = target: Rho-associated protein kinase 2 (Homo sapiens) (UniProt O75116); experiment: % Activity remaining of ROCK 2 in the Dundee kinase panel at 1.0 µM; conditions: Compound concentration 1.0 uM
[16] = target: Serine/threonine-protein kinase Sgk1 (Homo sapiens, UniProt O00141); experiment: (§1) % Activity remaining of SGK1 in the Dundee kinase panel at 1.0 µM
[17] = target: T1, Serine/threonine-protein kinase Sgk1 (Homo sapiens) (UniProt O00141); experiment: as §1; conditions: Compound concentration 1.0 uM
T1 sequence (whole entry): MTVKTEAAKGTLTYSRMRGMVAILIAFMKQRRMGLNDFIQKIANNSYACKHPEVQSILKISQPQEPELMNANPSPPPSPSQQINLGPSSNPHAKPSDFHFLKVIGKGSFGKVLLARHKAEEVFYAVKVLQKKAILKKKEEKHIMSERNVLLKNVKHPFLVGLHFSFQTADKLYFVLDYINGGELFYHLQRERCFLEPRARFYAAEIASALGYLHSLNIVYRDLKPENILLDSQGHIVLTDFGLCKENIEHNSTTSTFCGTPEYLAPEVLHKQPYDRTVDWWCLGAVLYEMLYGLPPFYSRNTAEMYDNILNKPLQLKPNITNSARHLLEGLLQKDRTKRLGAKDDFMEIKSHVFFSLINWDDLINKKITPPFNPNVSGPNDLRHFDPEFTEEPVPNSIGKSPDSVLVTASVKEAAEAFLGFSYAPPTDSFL

[18] = target: Fibroblast growth factor receptor 1 (Homo sapiens) (UniProt P11362); experiment: % Activity remaining of FGF-R1 in the Dundee kinase panel at 1.0 µM; conditions: Compound concentration 1.0 uM
[19] = target: Serine/threonine-protein kinase 3 (Homo sapiens) (UniProt Q13188); experiment: % Activity remaining of MST2 in the Dundee kinase panel at 1.0 µM; conditions: Compound concentration 1.0 uM
[20] = target: Mitogen-activated protein kinase 11 (Homo sapiens) (UniProt Q15759); experiment: % Activity remaining of p38 beta MAPK in the Dundee kinase panel at 1.0 µM; conditions: Compound concentration 1.0 uM
Sequence of Mitogen-activated protein kinase 11 (Homo sapiens) (Q15759 whole entry): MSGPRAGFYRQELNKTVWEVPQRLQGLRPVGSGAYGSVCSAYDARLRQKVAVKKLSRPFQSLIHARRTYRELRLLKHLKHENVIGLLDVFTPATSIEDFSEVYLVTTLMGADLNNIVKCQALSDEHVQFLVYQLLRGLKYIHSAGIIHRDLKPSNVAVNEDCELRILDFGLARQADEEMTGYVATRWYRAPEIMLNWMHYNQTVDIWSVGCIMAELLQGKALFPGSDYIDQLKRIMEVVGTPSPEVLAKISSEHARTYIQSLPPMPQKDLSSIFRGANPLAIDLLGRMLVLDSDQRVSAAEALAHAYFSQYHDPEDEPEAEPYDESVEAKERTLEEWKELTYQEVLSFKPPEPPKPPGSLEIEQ

[21] = target: Serine/threonine-protein kinase Nek2 (Homo sapiens) (UniProt P51955); experiment: % Activity remaining of NEK2a in the Dundee kinase panel at 1.0 µM; conditions: Compound concentration 1.0 uM
Sequence of Serine/threonine-protein kinase Nek2 (Homo sapiens) (P51955 whole entry): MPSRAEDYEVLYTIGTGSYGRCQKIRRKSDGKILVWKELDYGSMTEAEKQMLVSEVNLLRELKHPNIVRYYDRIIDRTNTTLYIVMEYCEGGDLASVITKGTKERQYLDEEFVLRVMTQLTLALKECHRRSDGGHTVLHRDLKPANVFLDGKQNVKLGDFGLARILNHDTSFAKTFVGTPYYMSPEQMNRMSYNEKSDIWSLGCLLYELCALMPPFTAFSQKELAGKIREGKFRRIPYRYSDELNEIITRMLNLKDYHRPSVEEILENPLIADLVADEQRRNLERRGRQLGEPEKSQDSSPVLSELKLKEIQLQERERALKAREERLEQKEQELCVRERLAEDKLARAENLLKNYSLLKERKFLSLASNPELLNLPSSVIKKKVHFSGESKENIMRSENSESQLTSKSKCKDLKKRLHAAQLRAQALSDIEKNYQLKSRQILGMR

[22] = target: Mitogen-activated protein kinase kinase kinase kinase 2 (Homo sapiens) (UniProt Q12851); experiment: % Activity remaining of GCK in the Dundee kinase panel at 1.0 µM; conditions: Compound concentration 1.0 uM
[23] = target: Mitogen-activated protein kinase 15 (Homo sapiens) (UniProt Q8TD08); experiment: % Activity remaining of ERK8 in the Dundee kinase panel at 1.0 µM; conditions: Compound concentration 1.0 uM
Sequence of Mitogen-activated protein kinase 15 (Homo sapiens) (Q8TD08 whole entry): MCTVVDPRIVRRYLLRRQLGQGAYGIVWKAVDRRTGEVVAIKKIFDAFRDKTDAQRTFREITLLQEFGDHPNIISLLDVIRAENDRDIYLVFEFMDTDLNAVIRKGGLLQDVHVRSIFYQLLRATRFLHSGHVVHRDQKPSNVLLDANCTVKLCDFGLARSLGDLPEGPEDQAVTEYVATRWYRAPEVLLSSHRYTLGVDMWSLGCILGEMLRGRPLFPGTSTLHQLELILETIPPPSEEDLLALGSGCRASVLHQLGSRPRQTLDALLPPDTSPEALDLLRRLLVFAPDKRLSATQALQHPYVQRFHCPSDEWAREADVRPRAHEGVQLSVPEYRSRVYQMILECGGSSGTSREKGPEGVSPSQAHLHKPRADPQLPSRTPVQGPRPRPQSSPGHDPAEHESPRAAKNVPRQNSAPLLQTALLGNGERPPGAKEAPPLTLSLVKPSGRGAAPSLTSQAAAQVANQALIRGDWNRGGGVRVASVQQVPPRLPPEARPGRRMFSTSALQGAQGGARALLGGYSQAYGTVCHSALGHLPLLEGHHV

[24] = target: Serine/threonine-protein kinase pim-3 (Homo sapiens) (UniProt Q86V86); experiment: % Activity remaining of PIM3 in the Dundee kinase panel at 1.0 µM; conditions: Compound concentration 1.0 uM
[25] = target: Ephrin type-B receptor 4 (Homo sapiens) (UniProt P54760); experiment: % Activity remaining of EPH-B4 in the Dundee kinase panel at 1.0 µM; conditions: Compound concentration 1.0 uM
[26] = target: Tyrosine-protein kinase BTK (Homo sapiens) (UniProt Q06187); experiment: % Activity remaining of BTK in the Dundee kinase panel at 1.0 µM; conditions: Compound concentration 1.0 uM
[27] = target: Serine/threonine-protein kinase PINK1, mitochondrial (Homo sapiens) (UniProt Q9BXM7); experiment: % Activity remaining of PINK in the Dundee kinase panel at 1.0 µM; conditions: Compound concentration 1.0 uM
Sequence of Serine/threonine-protein kinase PINK1, mitochondrial (Homo sapiens) (Q9BXM7 whole entry): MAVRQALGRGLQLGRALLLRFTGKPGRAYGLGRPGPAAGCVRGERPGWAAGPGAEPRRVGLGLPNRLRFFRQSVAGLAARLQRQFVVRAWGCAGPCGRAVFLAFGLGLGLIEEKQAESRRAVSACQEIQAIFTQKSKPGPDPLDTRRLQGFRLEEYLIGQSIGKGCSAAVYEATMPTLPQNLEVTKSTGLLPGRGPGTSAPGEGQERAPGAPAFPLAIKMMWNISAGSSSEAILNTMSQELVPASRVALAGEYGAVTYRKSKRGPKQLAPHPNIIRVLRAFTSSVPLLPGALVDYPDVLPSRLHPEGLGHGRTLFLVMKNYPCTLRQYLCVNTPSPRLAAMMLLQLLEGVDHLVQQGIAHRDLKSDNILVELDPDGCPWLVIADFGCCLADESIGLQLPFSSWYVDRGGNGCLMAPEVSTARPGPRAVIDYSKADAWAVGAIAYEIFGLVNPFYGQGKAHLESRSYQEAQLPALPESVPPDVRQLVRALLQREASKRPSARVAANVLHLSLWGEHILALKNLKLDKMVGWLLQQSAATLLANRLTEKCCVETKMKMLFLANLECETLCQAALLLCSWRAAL

[28] = target: RAC-beta serine/threonine-protein kinase (Homo sapiens) (UniProt P31751); experiment: % Activity remaining of PKB beta in the Dundee kinase panel at 1.0 µM; conditions: Compound concentration 1.0 uM
Sequence of RAC-beta serine/threonine-protein kinase (Homo sapiens) (P31751 whole entry): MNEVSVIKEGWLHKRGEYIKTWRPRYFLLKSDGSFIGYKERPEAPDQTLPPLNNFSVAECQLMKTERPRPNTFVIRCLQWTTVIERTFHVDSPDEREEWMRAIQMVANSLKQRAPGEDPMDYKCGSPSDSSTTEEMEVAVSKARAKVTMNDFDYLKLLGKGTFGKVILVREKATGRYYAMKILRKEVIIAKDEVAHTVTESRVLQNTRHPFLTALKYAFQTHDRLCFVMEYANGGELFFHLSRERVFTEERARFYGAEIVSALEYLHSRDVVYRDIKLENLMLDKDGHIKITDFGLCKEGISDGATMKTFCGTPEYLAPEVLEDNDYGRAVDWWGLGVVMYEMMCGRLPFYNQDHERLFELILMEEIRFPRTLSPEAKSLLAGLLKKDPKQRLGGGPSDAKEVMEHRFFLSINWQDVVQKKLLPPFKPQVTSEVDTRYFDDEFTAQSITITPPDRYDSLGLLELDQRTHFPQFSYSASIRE

[29] = target: Serine/threonine-protein kinase PAK 5 (Homo sapiens) (UniProt Q9P286); experiment: % Activity remaining of PAK5 in the Dundee kinase panel at 1.0 µM; conditions: Compound concentration 1.0 uM
[30] = target: Serine/threonine-protein kinase MARK2 (Homo sapiens) (UniProt Q7KZI7); experiment: % Activity remaining of MARK2 in the Dundee kinase panel at 1.0 µM; conditions: Compound concentration 1.0 uM
Sequence of Serine/threonine-protein kinase MARK2 (Homo sapiens) (Q7KZI7 whole entry): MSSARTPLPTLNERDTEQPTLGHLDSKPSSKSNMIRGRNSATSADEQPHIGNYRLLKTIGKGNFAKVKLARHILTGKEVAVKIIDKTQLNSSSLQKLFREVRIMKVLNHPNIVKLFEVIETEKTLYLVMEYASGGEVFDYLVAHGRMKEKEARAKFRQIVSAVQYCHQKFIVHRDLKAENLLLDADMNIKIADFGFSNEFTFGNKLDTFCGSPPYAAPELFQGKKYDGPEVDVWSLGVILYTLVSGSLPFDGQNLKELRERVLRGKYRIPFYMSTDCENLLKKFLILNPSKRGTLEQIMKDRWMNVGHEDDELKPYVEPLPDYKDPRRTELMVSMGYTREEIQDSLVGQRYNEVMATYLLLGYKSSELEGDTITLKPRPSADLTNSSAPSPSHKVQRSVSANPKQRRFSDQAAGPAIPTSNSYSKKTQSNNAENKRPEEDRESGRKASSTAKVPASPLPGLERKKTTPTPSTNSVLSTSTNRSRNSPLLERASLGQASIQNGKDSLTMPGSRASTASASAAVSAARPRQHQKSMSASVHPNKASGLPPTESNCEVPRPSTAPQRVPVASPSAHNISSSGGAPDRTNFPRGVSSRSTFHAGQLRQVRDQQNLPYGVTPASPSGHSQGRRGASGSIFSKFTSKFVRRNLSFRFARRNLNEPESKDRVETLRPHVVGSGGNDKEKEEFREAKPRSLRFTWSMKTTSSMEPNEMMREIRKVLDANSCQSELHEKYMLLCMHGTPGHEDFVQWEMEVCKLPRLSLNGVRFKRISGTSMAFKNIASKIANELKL

[31] = target: Protein-tyrosine kinase 6 (Homo sapiens) (UniProt Q13882); experiment: % Activity remaining of BRK in the Dundee kinase panel at 1.0 µM; conditions: Compound concentration 1.0 uM
Sequence of Protein-tyrosine kinase 6 (Homo sapiens) (Q13882 whole entry, looked up): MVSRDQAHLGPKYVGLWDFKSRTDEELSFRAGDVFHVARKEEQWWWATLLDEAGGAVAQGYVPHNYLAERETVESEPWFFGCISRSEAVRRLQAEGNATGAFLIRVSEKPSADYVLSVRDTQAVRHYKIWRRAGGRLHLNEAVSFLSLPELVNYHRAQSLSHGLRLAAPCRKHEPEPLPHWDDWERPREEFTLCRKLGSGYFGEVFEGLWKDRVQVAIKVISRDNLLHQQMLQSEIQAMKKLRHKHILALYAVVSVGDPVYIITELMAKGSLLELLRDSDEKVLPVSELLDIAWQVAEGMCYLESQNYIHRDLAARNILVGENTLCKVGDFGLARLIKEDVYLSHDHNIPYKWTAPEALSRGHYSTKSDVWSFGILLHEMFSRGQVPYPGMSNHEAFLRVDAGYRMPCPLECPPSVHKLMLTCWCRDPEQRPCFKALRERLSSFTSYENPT

[32] = target: CDK9/cyclin T1 (Homo sapiens) (UniProt O60563+P50750); experiment: % Activity remaining of CDK9-Cyclin T1 in the Dundee kinase panel at 1.0 µM; type: protein-complex assay; conditions: Compound concentration 1.0 uM
[33] = target: Casein kinase II subunit alpha (Homo sapiens) (UniProt P68400); experiment: % Activity remaining of CK2 in the Dundee kinase panel at 1.0 µM; conditions: Compound concentration 1.0 uM
[34] = target: TGF-beta receptor type-1 (Homo sapiens) (UniProt P36897); experiment: % Activity remaining of TGFBR1 in the Dundee kinase panel at 1.0 µM; conditions: Compound concentration 1.0 uM
[35] = target: Mitogen-activated protein kinase 1 (Homo sapiens) (UniProt P28482); experiment: % Activity remaining of ERK2 in the Dundee kinase panel at 1.0 µM; conditions: Compound concentration 1.0 uM
Sequence of Mitogen-activated protein kinase 1 (Homo sapiens) (P28482 whole entry): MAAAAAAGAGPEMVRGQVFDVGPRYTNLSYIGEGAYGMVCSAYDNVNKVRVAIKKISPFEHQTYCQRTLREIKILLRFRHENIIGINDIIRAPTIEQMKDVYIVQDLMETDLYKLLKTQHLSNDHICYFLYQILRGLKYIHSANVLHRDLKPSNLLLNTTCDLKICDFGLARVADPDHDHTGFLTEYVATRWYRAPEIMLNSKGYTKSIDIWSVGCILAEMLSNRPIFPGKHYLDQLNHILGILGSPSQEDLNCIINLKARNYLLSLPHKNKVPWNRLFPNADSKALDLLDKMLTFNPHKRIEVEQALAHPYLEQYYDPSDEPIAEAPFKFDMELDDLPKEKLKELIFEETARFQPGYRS

Cc1ccc(F)c(S(=O)(=O)Nc2ccc(-c3nc(OC[C@H]4CN(CCCCCCOCCOCCOCC(=O)N[C@H](C(=O)N5C[C@H](O)C[C@H]5C(=O)NCc5ccc(-c6scnc6C)cc5)C(C)(C)C)CCO4)c4cn[nH]c4n3)cc2)c1
% Activity remaining [1]: 83.2% | % Activity remaining [2]: 120% | % Activity remaining [3]: 108% | IC50 [4]: 300 nM (active) | % Activity remaining [5]: 110% | % Activity remaining [6]: 82.4% | % Activity remaining [7]: 103% | % Activity remaining [8]: 117% | % Activity remaining [9]: 103% | % Activity remaining [10]: 91.5% | % Activity remaining [11]: 122% | % Activity remaining [12]: 81.9% | % Activity remaining [13]: 98.2% | % Activity remaining [14]: 97.9% | % Activity remaining [15]: 113% | IC50 [16]: 220 nM | % Activity remaining [17]: 34.5% | % Activity remaining [18]: 108% | % Activity remaining [19]: 112% | % Activity remaining [20]: 107% | % Activity remaining [21]: 162% | % Activity remaining [22]: 99% | % Activity remaining [23]: 94.2% | % Activity remaining [24]: 88.1% | % Activity remaining [25]: 107% | % Activity remaining [26]: 96.9% | % Activity remaining [27]: 108% | % Activity remaining [28]: 98.7% | % Activity remaining [29]: 87.6% | % Activity remaining [30]: 102% | % Activity remaining [31]: 86.8% | % Activity remaining [32]: 103% | % Activity remaining [33]: 90.2% | % Activity remaining [34]: 124% | % Activity remaining [35]: 104%

Cc1ccc(F)c(S(=O)(=O)Nc2ccc(-c3nc(OC[C@H]4CN(CCCCCCOCCOCCOCC(=O)N[C@H](C(=O)N5C[C@@H](O)C[C@H]5C(=O)NCc5ccc(-c6scnc6C)cc5)C(C)(C)C)CCO4)c4cn[nH]c4n3)cc2)c1
% Activity remaining [1]: 90.2% | % Activity remaining [2]: 109% | % Activity remaining [3]: 107% | IC50 [4]: 600 nM (not active) | % Activity remaining [5]: 109% | % Activity remaining [6]: 93.2% | % Activity remaining [7]: 93.9% | % Activity remaining [8]: 109% | % Activity remaining [9]: 89.9% | % Activity remaining [10]: 99.5% | % Activity remaining [11]: 120% | % Activity remaining [12]: 93.9% | % Activity remaining [13]: 105% | % Activity remaining [14]: 99.5% | % Activity remaining [15]: 119% | IC50 [16]: 1400 nM | % Activity remaining [17]: 50.9% | % Activity remaining [18]: 106% | % Activity remaining [19]: 100% | % Activity remaining [20]: 112% | % Activity remaining [21]: 139% | % Activity remaining [22]: 96.3% | % Activity remaining [23]: 86.4% | % Activity remaining [24]: 88.8% | % Activity remaining [25]: 108% | % Activity remaining [26]: 90.6% | % Activity remaining [27]: 109% | % Activity remaining [28]: 101% | % Activity remaining [29]: 105% | % Activity remaining [30]: 112% | % Activity remaining [31]: 105% | % Activity remaining [32]: 105% | % Activity remaining [33]: 96.4% | % Activity remaining [34]: 114% | % Activity remaining [35]: 95.2%
